Experiments:
[1] = tested on: pigweed; experiment: Test B pre/postemergence pigweed; format: in vivo, Amaranthus retroflexus
Method in brief: (§1)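 Test chemicals in a non-phytotoxic solvent mixture with surfactant were sprayed preemergence onto planted seeds and postemergence onto plants 2 to 18 cm tall (1- to 4-leaf stage). After twelve to sixteen days in a greenhouse, injury was visually rated against untreated controls from 0 (no effect) to 10 (complete control).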

[2] = tested on: velvetleaf; experiment: Test B pre/postemergence velvetleaf; format: in vivo, Abutilon theophrasti
Method in brief: as §1

[3] = tested on: corn; experiment: Test B pre/postemergence corn; format: in vivo, Zea mays
Method in brief: as §1

[4] = tested on: purple nutsedge; experiment: Test B pre/postemergence purple nutsedge; format: in vivo, Cyperus rotundus
Method in brief: as §1

[5] = tested on: blackgrass; experiment: Test B pre/postemergence blackgrass; format: in vivo, Alopecurus myosuroides
Method in brief: as §1

[6] = tested on: rice; experiment: Test B flood test rice; format: in vivo, Oryza sativa
Method in brief: (§2)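 Each value is a visual injury score relative to controls, with 10 meaning complete control and 0 no effect. Evaluation took place twelve to sixteen days after the 2-leaf-stage plants were treated and kept in the greenhouse.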

[7] = tested on: rape; experiment: Test B pre/postemergence rape; format: in vivo, Brassica napus
Method in brief: as §1

[8] = tested on: wild oat; experiment: Test B pre/postemergence wild oat; format: in vivo, Avena fatua
Method in brief: as §1

[9] = tested on: sugar beet; experiment: Test B pre/postemergence sugar beet; format: in vivo, Beta vulgaris
Method in brief: as §1

[10] = tested on: crabgrass; experiment: Test B pre/postemergence crabgrass; format: in vivo, Digitaria sanguinalis
Method in brief: as §1

[11] = tested on: morningglory; experiment: Test B pre/postemergence morningglory; format: in vivo, Ipomoea hederacea
Method in brief: as §1

[12] = tested on: surinam grass; experiment: Test B pre/postemergence surinam grass; format: in vivo, Brachiaria decumbens
Method in brief: as §1

[13] = tested on: bamyardgrass; experiment: Test B flood test barnyardgrass; format: in vivo, Echinochloa crus-galli
Method in brief: as §2

[14] = tested on: smallflower flatsedge; experiment: Test B flood test smallflower flatsedge; format: in vivo, Cyperus difformis
Method in brief: as §2

[15] = tested on: duck salad; experiment: Test B flood test duck salad; format: in vivo, Heteranthera limosa
Method in brief: as §2

[16] = tested on: giant foxtail; experiment: Test B pre/postemergence giant foxtail; format: in vivo, Setaria faberii
Method in brief: as §1

[17] = tested on: wheat; experiment: Test B pre/postemergence wheat; format: in vivo, Triticum aestivum
Method in brief: as §1

[18] = tested on: bedstraw; experiment: Test B pre/postemergence bedstraw; format: in vivo, Galium aparine
Method in brief: as §1

[19] = tested on: cocklebur; experiment: Test B pre/postemergence cocklebur; format: in vivo, Xanthium strumarium
Method in brief: as §1

[20] = tested on: soybean; experiment: Test B pre/postemergence soybean; format: in vivo, Glycine max
Method in brief: as §1

[21] = Postemergence, Rate 250 g/ha, scale 0 to 10, 0 is no effect, 10 is complete control
[22] = Postemergence, Rate 500 g/ha, scale of 0 to 10 where 0 is no effect and 10 is complete control
[23] = Preemergence, Rate 62 g/ha, scale 0 to 10 (0 no effect, 10 complete control)
[24] = Preemergence, Rate 125 g/ha, scale of 0 to 10 where 0 is no effect and 10 is complete control
[25] = Preemergence, Rate 250 g/ha, scale 0 to 10, 0 is no effect, 10 is complete control
[26] = Preemergence, Rate 500 g/ha, scale 0 to 10, 0 is no effect, 10 is complete control
[27] = Postemergence, Rate 125 g/ha, scale 0 to 10, 0 is no effect, 10 is complete control
[28] = Rate 62 g/ha, Postemergence, scale of 0 to 10 where 0 is no effect and 10 is complete control
[29] = Preemergence, Rate 250 g/ha, scale of 0 to 10 where 0 is no effect and 10 is complete control
[30] = Rate 62 g/ha, flood test species, Pre-emergence, visual evaluation after twelve to sixteen days
[31] = Rate 125 g/ha, under heading Pre-emergence, flood test species, visual evaluation after twelve to sixteen days
[32] = Rate 250 g/ha, Pre-emergence, flood-test species, scale 0 to 10, 0 is no effect, 10 is complete control

CC(C)N(C(=O)n1oc(=O)n(C(C)C2CC2)c1=O)c1ccc(F)cc1 (stereo not drawn) [Compound 404]
7: Redroot pigweed plant response rating [1, 22] | Velvetleaf plant response rating [2, 26] | Plant response rating, Blackgrass [5, 24] | Rice plant response rating [6, 32] | Rape plant response rating [7, 25] | Plant response rating, Morningglory [11, 21] | Soybean plant response rating [20, 22]
2: Plant response rating, Redroot pigweed [1, 23] | Plant response rating, Corn [3, 24] | Corn plant response rating [3, 25] | Plant response rating, Morningglory [11, 24] | Plant response rating, B. signalgrass [12, 27] | Plant response rating, B. signalgrass [12, 23] | B. signalgrass plant response rating [12, 28] | Plant response rating, Wheat [17, 24] | Plant response rating, Cocklebur [19, 27] | Plant response rating, Cocklebur [19, 21]
6: Plant response rating, Redroot pigweed [1, 24] | Velvetleaf plant response rating [2, 22] | Corn plant response rating [3, 26] | Plant response rating, Blackgrass [5, 23] | Sugarbeets plant response rating [9, 25] | B. signalgrass plant response rating [12, 22] | Plant response rating, Soybean [20, 21]
8: Rape plant response rating [7, 22] | Rape plant response rating [7, 26] | Wild oats plant response rating [8, 22] | Plant response rating, Wild oats [8, 24] | Sugarbeets plant response rating [9, 26] | Crabgrass plant response rating [10, 22] | B. signalgrass plant response rating [12, 29] | S. Flatsedge plant response rating [14, 32] | Plant response rating, Bedstraw [18, 21]
9: Blackgrass plant response rating [5, 29] | Barnyardgrass plant response rating (0 to 10 scale, 0 is no effect, 10 is complete control) [13, 31] | Barnyardgrass plant response rating [13, 32] | Plant response rating, Giant foxtail [16, 27] | Plant response rating, Giant foxtail [16, 21] | Giant foxtail plant response rating [16, 22]
1: Plant response rating, Velvetleaf [2, 24] | Corn plant response rating [3, 22] | Plant response rating, Rape [7, 23] | Plant response rating, Sugarbeets [9, 21] | Ducksalad plant response rating (0 to 10 scale, 0 is no effect, 10 is complete control) [15, 31]
3: Plant response rating, Wild oats [8, 23] | Plant response rating, Sugarbeets [9, 24] | Plant response rating, Crabgrass [10, 27] | Wheat plant response rating [17, 22] | Cocklebur plant response rating [19, 22] | Soybean plant response rating [20, 26]
0: Plant response rating, Velvetleaf [2, 21] | Plant response rating, Velvetleaf [2, 23] | Plant response rating, Corn [3, 27] | Plant response rating, Corn [3, 21] | Plant response rating, Corn [3, 23] | Corn plant response rating [3, 28] | Plant response rating, Nutsedge [4, 21] | Nutsedge plant response rating [4, 22] | Plant response rating, Nutsedge [4, 23] | Plant response rating, Nutsedge [4, 24] | Nutsedge plant response rating [4, 25] | Nutsedge plant response rating [4, 26] | Plant response rating, Rice (0 to 10 scale, 0 is no effect, 10 is complete control) [6, 30] | Rice plant response rating (0 to 10 scale, 0 is no effect, 10 is complete control) [6, 31] | Plant response rating, Sugarbeets [9, 23] | Crabgrass plant response rating [10, 28] | Plant response rating, Morningglory [11, 23] | Plant response rating, S. Flatsedge (0 to 10 scale, 0 is no effect, 10 is complete control) [14, 30] | S. Flatsedge plant response rating (0 to 10 scale, 0 is no effect, 10 is complete control) [14, 31] | Plant response rating, Ducksalad (0 to 10 scale, 0 is no effect, 10 is complete control) [15, 30] | Plant response rating, Wheat [17, 23] | Plant response rating, Bedstraw [18, 23] | Plant response rating, Cocklebur [19, 23] | Plant response rating, Cocklebur [19, 24] | Cocklebur plant response rating [19, 25] | Cocklebur plant response rating [19, 26] | Cocklebur plant response rating [19, 28] | Plant response rating, Soybean [20, 23] | Plant response rating, Soybean [20, 24] | Soybean plant response rating [20, 25]
5: Plant response rating, Redroot pigweed [1, 21] | Velvetleaf plant response rating [2, 25] | Blackgrass plant response rating [5, 28] | Plant response rating, Crabgrass [10, 21] | Morningglory plant response rating [11, 26] | Ducksalad plant response rating [15, 32] | Giant foxtail plant response rating [16, 28] | Wheat plant response rating [17, 26]
10: Redroot pigweed plant response rating [1, 25] | Redroot pigweed plant response rating [1, 26] | Plant response rating, Blackgrass [5, 21] | Blackgrass plant response rating [5, 22] | Blackgrass plant response rating [5, 26] | Wild oats plant response rating [8, 25] | Wild oats plant response rating [8, 26] | Plant response rating, Crabgrass [10, 23] | Plant response rating, Crabgrass [10, 24] | Crabgrass plant response rating [10, 25] | Crabgrass plant response rating [10, 26] | Morningglory plant response rating [11, 22] | B. signalgrass plant response rating ([12]; Preemergence, Rate 500 g/ha, scale of 0 to 10 where 0 is no effect and 10 is complete control) | Plant response rating, Giant foxtail [16, 23] | Plant response rating, Giant foxtail [16, 24] | Giant foxtail plant response rating [16, 25] | Giant foxtail plant response rating [16, 26] | Bedstraw plant response rating [18, 29] | Bedstraw plant response rating [18, 26]
4: Plant response rating, Rape [7, 21] | Plant response rating, Rape [7, 24] | Sugarbeets plant response rating [9, 22] | Morningglory plant response rating [11, 25] | Plant response rating, B. signalgrass [12, 24] | Plant response rating, Barnyardgrass (0 to 10 scale, 0 is no effect, 10 is complete control) [13, 30] | Wheat plant response rating [17, 25]

From patent US6737383B1, “Herbicidal oxadiazolidines” (priority 1999, dated 2004)
